Laboratory results: ChEMBL document CHEMBL2413072, “Synthesis and in vitro anticancer studies of novel C-2 arylidene congeners of lantadenes” (2013)

Assays:
Assay type in all cases: functional
KM12 = experiment: Growth inhibition of human KM12 cells assessed as cell growth at 10^-7 M by sulforhodamine B assay; conditions: read-out: Activity
RXF 393 = experiment: Growth inhibition of human RXF393 cells assessed as cell growth at 10^-7 M by sulforhodamine B assay; conditions: read-out: Activity
NCI-H522 = experiment: Growth inhibition of human NCI-H522 cells assessed as cell growth at 10^-6 M by sulforhodamine B assay; conditions: read-out: Activity
SF-539 = experiment: Growth inhibition of human SF539 cells by sulforhodamine B assay
COLO 205 [1] = experiment: Growth inhibition of human COLO205 cells assessed as cell growth at 10^-7 M by sulforhodamine B assay; conditions: read-out: Activity
COLO 205 [2] = experiment: Growth inhibition of human COLO205 cells assessed as cell growth at 10^-6 M by sulforhodamine B assay; conditions: read-out: Activity
[3] = Growth inhibition of human Hs 578T cells assessed as cell growth at 10^-8 M by sulforhodamine B assay; conditions: read-out: Activity
A549 = experiment: Growth inhibition of human A549/ATCC cells assessed as cell growth at 10^-4 M by sulforhodamine B assay; conditions: read-out: Activity
MCF7 = experiment: Growth inhibition of human MCF7 cells assessed as cell growth at 10^-7 M by sulforhodamine B assay; conditions: read-out: Activity
HL-60(TB) = experiment: Growth inhibition of human HL-60(TB) cells assessed as cell growth at 10^-7 M by sulforhodamine B assay; conditions: read-out: Activity
SR = experiment: Growth inhibition of human SR cells by sulforhodamine B assay
SNB-19 [4] = experiment: Growth inhibition of human SNB19 cells assessed as cell growth at 10^-4 M by sulforhodamine B assay; conditions: read-out: Activity
UACC-62 = experiment: Growth inhibition of human UACC62 cells assessed as cell growth at 10^-6 M by sulforhodamine B assay; conditions: read-out: Activity
SW-620 [5] = experiment: Growth inhibition of human SW620 cells assessed as cell growth at 10^-6 M by sulforhodamine B assay; conditions: read-out: Activity
CCRF-CEM = experiment: Growth inhibition of human CCRF-CEM cells assessed as cell growth at 10^-8 M by sulforhodamine B assay; conditions: read-out: Activity
MDA-MB-435 = experiment: Growth inhibition of human MDA-MB-435 cells by sulforhodamine B assay
Malme-3M [6] = experiment: Growth inhibition of human MALME-3M cells assessed as cell growth at 10^-6 M by sulforhodamine B assay; conditions: read-out: Activity
U-251 [7] = experiment: Growth inhibition of human U251 cells assessed as cell growth at 10^-8 M by sulforhodamine B assay; conditions: read-out: Activity
Malme-3M [8] = experiment: Growth inhibition of human MALME-3M cells by sulforhodamine B assay
ACHN = experiment: Growth inhibition of human ACHN cells assessed as cell growth at 10^-6 M by sulforhodamine B assay; conditions: read-out: Activity
SW-620 [9] = experiment: Growth inhibition of human SW620 cells assessed as cell growth at 10^-7 M by sulforhodamine B assay; conditions: read-out: Activity
SK-MEL-28 = experiment: Growth inhibition of human SK-MEL-28 cells assessed as cell growth at 10^-4 M by sulforhodamine B assay; conditions: read-out: Activity
SNB-75 [10] = experiment: Growth inhibition of human SNB75 cells assessed as cell growth at 10^-7 M by sulforhodamine B assay; conditions: read-out: Activity
SNB-75 [11] = experiment: Growth inhibition of human SNB75 cells assessed as cell growth at 10^-4 M by sulforhodamine B assay; conditions: read-out: Activity
HCT-15 = experiment: Growth inhibition of human HCT15 cells assessed as cell growth at 10^-8 M by sulforhodamine B assay; conditions: read-out: Activity
OVCAR-8 = experiment: Growth inhibition of human OVCAR8 cells assessed as cell growth at 10^-6 M by sulforhodamine B assay; conditions: read-out: Activity
[12] = Growth inhibition of human HCC2998 cells assessed as cell growth at 10^-7 M by sulforhodamine B assay; conditions: HCC 2998, read-out: Activity
NCI-H23 = experiment: Growth inhibition of human NCI-H23 cells assessed as cell growth at 10^-7 M by sulforhodamine B assay; conditions: read-out: Activity
HOP-62 = experiment: Growth inhibition of human HOP62 cells assessed as cell growth at 10^-7 M by sulforhodamine B assay; conditions: read-out: Activity
MDA-MB-468 = experiment: Growth inhibition of human MDA-MB-468 cells assessed as cell growth at 10^-7 M by sulforhodamine B assay; conditions: read-out: Activity
SK-OV-3 [13] = experiment: Growth inhibition of human SKOV3 cells assessed as cell growth at 10^-7 M by sulforhodamine B assay; conditions: read-out: Activity
SK-MEL-5 = experiment: Growth inhibition of human SK-MEL-5 cells by sulforhodamine B assay
SNB-19 [14] = experiment: Growth inhibition of human SNB19 cells by sulforhodamine B assay
U-251 [15] = experiment: Growth inhibition of human U251 cells assessed as cell growth at 10^-4 M by sulforhodamine B assay; conditions: read-out: Activity
IGROV-1 = experiment: Growth inhibition of human IGROV1 cells assessed as cell growth at 10^-4 M by sulforhodamine B assay; conditions: read-out: Activity
[16] = Growth inhibition of human NCI-ADR-RES cells assessed as cell growth at 10^-6 M by sulforhodamine B assay; conditions: read-out: Activity
SF-295 = experiment: Growth inhibition of human SF295 cells assessed as cell growth at 10^-4 M by sulforhodamine B assay; conditions: read-out: Activity
OVCAR-3 = experiment: Growth inhibition of human OVCAR3 cells assessed as cell growth at 10^-6 M by sulforhodamine B assay; conditions: read-out: Activity
SK-OV-3 [17] = experiment: Growth inhibition of human SKOV3 cells by sulforhodamine B assay
OVCAR-5 = experiment: Growth inhibition of human OVCAR5 cells assessed as cell growth at 10^-4 M by sulforhodamine B assay; conditions: read-out: Activity
SK-OV-3 [18] = experiment: Growth inhibition of human SKOV3 cells assessed as cell growth at 10^-4 M by sulforhodamine B assay; conditions: read-out: Activity
[19] = read-out: LC50 (the source's name)
[20] = read-out: pLC50 (the source's name) (converted)

C/C=C(/C)C(=O)O[C@@H]1CC(C)(C)C[C@H]2C3=CC[C@@H]4[C@@]5(C)CCC(=O)C(C)(C)[C@@H]5CC[C@@]4(C)[C@]3(C)CC[C@@]12C(=O)O [LANTADENE A]
growth at 0.1 µM (KM12): 102% | growth at 0.1 µM (RXF 393): 91% | growth at 1 µM (NCI-H522): 94% | GI50 (SF-539; read-out: GI50): 6.51 µM | CC50 (SF-539; [19]): > 100 µM | TGI (SF-539; read-out: TGI): > 100 µM | GI50 (SF-539; read-out: pGI50 (converted)): 6.46 µM | CC50 (SF-539; [20]): > 100 µM | TGI (SF-539; read-out: pTGI (converted)): > 100 µM | growth at 0.1 µM (COLO 205 [1]): 110% | growth at 1 µM (COLO 205 [2]): 101% | growth at 0.01 µM [3]: 97% | growth at 100 µM (A549): 10% | growth at 0.1 µM (MCF7): 90% | growth at 0.1 µM (HL-60(TB)): 96% | GI50 (SR; read-out: GI50): 3 µM | CC50 (SR; [19]): > 100 µM | TGI (SR; read-out: TGI): > 100 µM | GI50 (SR; read-out: pGI50 (converted)): 3.02 µM | CC50 (SR; [20]): > 100 µM | TGI (SR; read-out: pTGI (converted)): > 100 µM | growth at 100 µM (SNB-19 [4]): 23% | growth at 1 µM (UACC-62): 70% | growth at 1 µM (SW-620 [5]): 90% | growth at 0.01 µM (CCRF-CEM): 98% | GI50 (MDA-MB-435; read-out: GI50): 5.24 µM | CC50 (MDA-MB-435; [19]): > 100 µM | TGI (MDA-MB-435; read-out: TGI): > 100 µM | GI50 (MDA-MB-435; read-out: pGI50 (converted)): 5.25 µM | CC50 (MDA-MB-435; [20]): > 100 µM | TGI (MDA-MB-435; read-out: pTGI (converted)): > 100 µM | growth at 1 µM (Malme-3M [6]): 91% | growth at 0.01 µM (U-251 [7]): 98% | GI50 (Malme-3M [8]; read-out: GI50): 7.91 µM | CC50 (Malme-3M [8]; [19]): > 100 µM | TGI (Malme-3M [8]; read-out: TGI): > 100 µM | GI50 (Malme-3M [8]; read-out: pGI50 (converted)): 7.94 µM | CC50 (Malme-3M [8]; [20]): > 100 µM | TGI (Malme-3M [8]; read-out: pTGI (converted)): > 100 µM | growth at 1 µM (ACHN): 92% | growth at 0.1 µM (SW-620 [9]): 95% | growth at 100 µM (SK-MEL-28): 42% | growth at 0.1 µM (SNB-75 [10]): 89% | growth at 100 µM (SNB-75 [11]): 33% | growth at 0.01 µM (HCT-15): 100% | growth at 1 µM (OVCAR-8): 95% | growth at 0.1 µM [12]: 108% | growth at 0.1 µM (NCI-H23): 99% | growth at 0.1 µM (HOP-62): 95% | growth at 0.1 µM (MDA-MB-468): 83% | growth at 0.1 µM (SK-OV-3 [13]): 114% | GI50 (SK-MEL-5; read-out: GI50): 1.22 µM | CC50 (SK-MEL-5; [19]): > 100 µM | TGI (SK-MEL-5; read-out: TGI): 4.3 µM | GI50 (SK-MEL-5; read-out: pGI50 (converted)): 1.23 µM | CC50 (SK-MEL-5; [20]): > 100 µM | TGI (SK-MEL-5; read-out: pTGI (converted)): 4.27 µM | GI50 (SNB-19 [14]; read-out: GI50): 4.67 µM | CC50 (SNB-19 [14]; [19]): > 100 µM | TGI (SNB-19 [14]; read-out: TGI): > 100 µM | GI50 (SNB-19 [14]; read-out: pGI50 (converted)): 4.68 µM | CC50 (SNB-19 [14]; [20]): > 100 µM | TGI (SNB-19 [14]; read-out: pTGI (converted)): > 100 µM | growth at 100 µM (U-251 [15]): 6% | growth at 100 µM (IGROV-1): 30% | growth at 1 µM [16]: 97% | growth at 100 µM (SF-295): -6% | growth at 1 µM (OVCAR-3): 105% | GI50 (SK-OV-3 [17]; read-out: GI50): 18 µM | CC50 (SK-OV-3 [17]; [19]): > 100 µM | TGI (SK-OV-3 [17]; read-out: TGI): > 100 µM | GI50 (SK-OV-3 [17]; read-out: pGI50 (converted)): 18.2 µM | CC50 (SK-OV-3 [17]; [20]): > 100 µM | TGI (SK-OV-3 [17]; read-out: pTGI (converted)): > 100 µM | growth at 100 µM (OVCAR-5): 42% | growth at 100 µM (SK-OV-3 [18]): 32%
